Data published in US5108993A, “Pharmaceutical composition comprising zidovudine and inosiplex or components thereof for the treatment of aids-related syndromes” (priority 1988, dated 1992).
Read-outs that look alike come from different tables or passages of the source.

Experiments:
[1] = Pharmacokinetics studies of AZT 100 mg every 6 hours before the study; assay type: in vivo, AIDS patients; conditions: 100 mg AZT every 6 hours (400 mg total daily dose)
[2] = Clinical Study No. 2: plasma/serum AZT by radioimmunoassay, AZT alone then AZT + p-acetamidobenzoic acid; assay type: in vivo, AIDS patients; conditions: for Cmax: human, plasma, po, 100 mg, mean peak plasma level of AZT; for concentration: read-out: mean nadir level of AZT
Protocol: (§1) The patients were then placed on the following dosing regimen:
(§2) No other drugs that are believed to affect hepatic glucuronidation were administered.

[3] = tested on: HIV (Human Immunodeficiency Virus); conditions: cited from earlier work
[4] = cited from earlier work
bone marrow = test: Bone marrow toxicity of AZT in the study patients before the study; assay type: in vivo, AIDS patients; conditions: 200 mg AZT orally every four hours (1,200 mg daily), and again on 800 mg daily for 2 months; 5 patients
[5] = Clinical Study 1: plasma/serum AZT by radioimmunoassay, AZT alone then AZT + inosiplex; assay type: in vivo, AIDS patients; conditions: for Cmax: plasma, mean peak plasma level of AZT; for concentration: read-out: mean nadir level of AZT
Protocol: as §1, §2

[6] = Clinical Study 3: plasma/serum AZT by radioimmunoassay, AZT alone then AZT + inosine + INPX; assay type: in vivo, AIDS patients; conditions: for Cmax: human, plasma, po, 100 mg, mean peak plasma level of AZT; for concentration: read-out: mean nadir level of AZT
Protocol: as §1, §2

HIV = conditions: cited from earlier work
[7] = tested on: RNA-dependent DNA-polymerase (viral reverse transcriptase); conditions: in vitro incorporation into DNA growing chains, DNA chain terminated; cited from earlier work
[8] = with zidovudine, GB 2 181 128 A

Compound: Cc1cn([C@H]2C[C@H](N=[N+]=[N-])[C@@H](CO)O2)c(=O)[nH]c1=O [AZT, 3'-azido-3'-deoxythymidine]
- plasma levels [1]: below the therapeutical threshold
- serum level at time 0 ([2]; before the taking of AZT alone or of AZT and p-acetamidobenzoic acid): 10 nM
- Cmax ([2]; 100 mg AZT with 1 gm p-acetamidobenzoic acid every 6 hrs, day 14, standard deviation 1.8 μM, range 0.16 to 4.7 μM): 2450 nM
- Cmax ([2]; AZT alone 100 mg oral every 6 hours, day 7, standard deviation 0.75 μM, range 0.04 to 2.46 μM): 1520 nM
- concentration ([2]; 100 mg AZT with 1 gm p-acetamidobenzoic acid every 6 hrs, day 14, standard deviation 0.28 μM, range 0.14 to 0.88 μM): 490 nM
- concentration ([2]; AZT alone 100 mg oral every 6 hours, day 7, standard deviation 0.19 μM, range 0.04 to 0.6 μM): 250 nM
- inhibition of in vitro replication of some retroviruses, including HIV [3]: inhibitor of the in vitro replication of some retroviruses, including HIV
- half-life ([4]; average): about 1 hour
- metabolic inactivation ([4]; liver): rapidly inactivated via glucuronidation in the liver
- bone marrow toxicity (bone marrow): developped bone marrow toxicity
- AZT serum level at time 0 ([5]; before the taking of AZT alone or of AZT and INPX): 0.013 µM
- Cmax ([5]; human, po, 100 mg, 100 mg AZT with 1 gm INPX every 6 hrs, day 14, standard deviation 1.5 μM, range 0.14 to 4.4 μM): 2250 nM
- Cmax ([5]; human, po, 100 mg, AZT alone 100 mg oral every 6 hours, day 7, standard deviation 0.75 μM, range 0.06 to 2.52 μM): 1470 nM
- half-life ([5]; human, serum, po, 100 mg, read-out: Serum half-life of the elimination phase (T1/2)): 44 min
- concentration ([5]; 100 mg AZT with 1 gm INPX every 6 hrs, day 14, standard deviation 0.25 μM, range 0.15 to 0.84 μM): 460 nM
- concentration ([5]; AZT alone 100 mg oral every 6 hours, day 7, standard deviation 0.19 μM, range 0.06 to 0.5 μM): 240 nM
- AZT serum level at time 0 ([6]; before the taking of AZT alone or of AZT, inosine and INPX): 0.016 µM
- Cmax ([6]; 100 mg AZT with 1 gm inosine and 1 gm INPX every 6 hrs, day 14, standard deviation 1.3 μM, range 0.15 to 4.2 μM): 2760 nM
- Cmax ([6]; AZT alone 100 mg oral every 6 hours, day 7, standard deviation 0.70 μM, range 0.03 to 2.16 μM): 1410 nM
- concentration ([6]; 100 mg AZT with 1 gm inosine and 1 gm INPX every 6 hrs, day 14, standard deviation 0.26 μM, range 0.11 to 0.82 μM): 510 nM
- concentration ([6]; AZT alone 100 mg oral every 6 hours, day 7, standard deviation 0.16 μM, range 0.06 to 0.8 μM): 210 nM

Compound: Nc1nc2c(ncn2COCCO)c(=O)[nH]1 [acyclovir]
- effect on zidovudine (HIV; [8]): synergistic effect

Compound: COc1cc(C(=O)OCCCN2CCCN(CCCOC(=O)c3cc(OC)c(OC)c(OC)c3)CC2)cc(OC)c1OC [dilazep]
- effect on zidovudine (HIV; [8]): synergistic effect

Compound: OCCN(CCO)c1nc(N2CCCCC2)c2nc(N(CCO)CCO)nc(N3CCCCC3)c2n1 [dipyridamole]
- effect on zidovudine (HIV; [8]): synergistic effect

Compound: O=C(O)P(=O)(O)O [foscarnet]
- effect on zidovudine (HIV; [8]): synergistic effect

Compound: COc1cc(C(=O)OCCCN(C)CCN(C)CCCOC(=O)c2cc(OC)c(OC)c(OC)c2)cc(OC)c1OC [hexobendine]
- effect on zidovudine (HIV; [8]): synergistic effect

Compound: c1ccc([C@H]2CN3CCSC3=N2)cc1 [levamisole]
- effect on zidovudine (HIV): synergistic effect

Compound: Cc1cccc(C)c1NC(=O)CN1CCN(CCCC(c2ccc(F)cc2)c2ccc(F)cc2)CC1 [lidoflazine]
- effect on zidovudine (HIV; [8]): synergistic effect

Compound: NC(=O)C1CN(CC(=O)Nc2c(Cl)cccc2Cl)CCN1CCCC(c1ccc(F)cc1)c1ccc(F)cc1 (centres unmarked) [mioflazine]
- effect on zidovudine (HIV; [8]): synergistic effect

Compound: COc1ccc(Cc2nccc3cc(OC)c(OC)cc23)cc1OC [papaverine]
- effect on zidovudine (HIV; [8]): synergistic effect

Compound: CCCN(CCC)S(=O)(=O)c1ccc(C(=O)O)cc1 [probenecid]
- effect on zidovudine (HIV; [8]): synergistic effect

Compound: Cc1ccc(C(=O)Nc2ccc(S(=O)(=O)O)c3cc(S(=O)(=O)O)cc(S(=O)(=O)O)c23)cc1NC(=O)c1cccc(NC(=O)Nc2cccc(C(=O)Nc3cc(C(=O)Nc4ccc(S(=O)(=O)O)c5cc(S(=O)(=O)O)cc(S(=O)(=O)O)c45)ccc3C)c2)c1 [suramine]
- effect on zidovudine (HIV; [8]): synergistic effect

Compound: Cc1cn([C@H]2C[C@H](N=[N+]=[N-])[C@@H](CO[P@](=O)(O)O[P@](=O)(O)OP(=O)(O)O)O2)c(=O)[nH]c1=O [zidovudine triphosphate]
- effect on RNA-dependent DNA-polymerase (viral reverse transcriptase) [7]: incorporated into the DNA growing chains by viral reverse transcriptase, whereby DNA chain is terminated

Compound: alpha-interferon
- effect on zidovudine (HIV; [8]): synergistic effect

Compound: gamma-interferon: alpha-, beta, and gamma-interferons
- effect on zidovudine (HIV; [8]): synergistic effect
